Assay results: patent publication US20260015352A1, “METHYLTRANSFERASE INHIBITOR AND USE THEREOF” (CYTOSINLAB THERAPEUTICS CO., LTD., priority 2022, published 2026)

Tested on: G401 cells
Assay: G401 ELISA test
Format: cell-based
Settings: Homo sapiens, G-401; G401 cells treated with compounds for 72 hours; ELISA detecting K27 and H3; read-out: G401_ELISA IC50
Protocol: • Plate Reader: Envision (Perkinelmner); plate shaker: IKA MTS 2/4; plate Washer: BioTek microplate wisher 405 select; Cell counter: Counterstar (Ruiyu-biotech); Cell culture incubator: MCO-15AC (ThermoFisher); Pipette: BioHit Multichannel. Pipette: 0.2-10 μL, 10-300 μL, 50-1200 μL; Centrifuge: Thermo Centrifuge ST 40R; Pure water system: Millipore Milli-Q Reference system; Refrigerator: Haier −80 degree, −20 degree, and 4-degree refrigerators; cell cryopreservation box: Mr. Frosty™ Gradient Cooling Box Cat #5100-0001
• McCoys 5A (Modified) culture medium (ATCC); FBS (Gibco); 0.25% Trypsin/EDTA (Gibco); PBS (Hyclone); Penicillin/Streptomycin(100×) (Gibco); DMSO (Sigma); 384 cell culture plate (Corning); 384 detection plate (Greiner); 96 well plate (compound dilution) (Haimen, Qunchao); T75 Cell Culture Bottle (Corning)
G401 cells were seeded in a 384-well cell culture plate and incubated overnight at 37° C. in a 5% CO2 cell culture incubator, after which the cells were treated with compounds of different concentrations for 72 hours. The 384-well cell culture plate was taken out and upside down in a centrifuge to centrifugeat 300 rpm for 1 minute. After centrifugation, the 384-well cell culture plate was washed twice with PBS, added with lysis solution and lysed for 60 minutes. Then neutralization buffer was added for mixing and incubation was continued for 30 minutes. 20 ul (for detecting K27) and 10 ul (for detecting H3) of cell lysate were extracted from the 384-well cell culture plate and transferred to a 384 ELISA detection plate and incubate overnight at 4° C. The next day, the 384 ELISA plate was taken out and washed 5 times with TBST in a microplate washer. Then, the plate was added with a blocking solution and sealed at room temperature for 1 hour. The blocking solution was discarded and the primary antibody was added and then the plate was incubated at room temperature for 1 hour. After incubation, the plate was washed with TBST 5 times in a microplate washer, then added with secondary antibody and incubated at room temperature for 1 hour. After incubation, the plate was washed with TBST 5 times in a microplate washer, and finally added with color developer for color development. The plate was read with Envision plate reader. The obtained data was converted into inhibition rate using the following calculation method: % Inhibition rate=100−100*(compound absorbance−positive control absorbance)/(negative control absorbance−positive control absorbance), and then the inhibition rate data was subjected to curve fitting using the “logarithmic (inhibitor) and reaction-variable slope (four parameters)” model in GraphPad Prism 5 software.
The inhibition rate of the compound was calculated as follows: […]
The compounds of the present invention were tested according to the above experimental method, and some results were shown in Table 3. The test results were classified by A, B, and C, wherein A represents IC50≤0.1 uM; B represents 0.1 uM<IC50≤1 uM; C represents IC50>1 uM

IC50 [nM]	SMILES
≤ 100	COc1nccc2ccc(Nc3ccc([C@H](C)Nc4ncc(CNCCC#N)cn4)cc3F)nc12 [PA181]
≤ 100	COc1cccc2ccc(Nc3ccc(CNc4ncc(CC(=O)NC5COC5)cn4)cc3F)nc12 [PA197]
≤ 100	COc1nccc2ccc(Nc3ccc(CNc4ncc(CNCc5cnoc5)cn4)cc3F)nc12 [PA198]
≤ 100	COc1nccc2ccc(Nc3ccc([C@H](C)Nc4ncc(CC(=O)NCCC#N)cn4)cc3F)nc12 [PA200]
≤ 100	COc1nccc2ccc(Nc3ccc([C@H](C)Nc4ncc(CNC5CC(F)(F)C5)cn4)cc3F)nc12 [PA201]
≤ 100	COc1nccc2ccc(Nc3ccc(CNc4ncc(CNCc5cnco5)cn4)cc3F)nc12 [PA203]
100 to 1000	COc1nccc2ccc(Nc3ccc(CNc4ncc(NCc5cnoc5)cn4)cc3F)nc12 [PA208]
100 to 1000	COc1nccc2ccc(Nc3ccc(CNc4ncc(CCNC5COC5)cn4)cc3)nc12 [PA211]
100 to 1000	COc1nccc2ccc(Nc3ccc(CNc4ncc(CC(=O)N5CCC56COC6)cn4)cc3F)nc12 [PA215]
100 to 1000	COc1nccc2ccc(Nc3ccc([C@H](C)Nc4ncc(CCc5cc(C#N)n[nH]5)cn4)cc3F)nc12 [PA219]
100 to 1000	COc1nccc2ccc(Nc3ccc(CNc4ncc(CNCC5CCOC5)cn4)cc3F)nc12 (stereo not shown) [PA220]
100 to 1000	COc1nccc2ccc(Nc3ccc(CNc4ncc(CNCc5ccon5)cn4)cc3F)nc12 [PA221]
100 to 1000	COc1nccc2ccc(Nc3ccc(CNc4ncc(CC(=O)N5CCC(C#N)CC5)cn4)cc3F)nc12 [PA224]
100 to 1000	COc1nccc2ccc(Nc3ccc(CNc4ncc(CC(=O)N5CCOCC5)cn4)cc3F)nc12 [PA226]
100 to 1000	COc1nccc2ccc(Nc3ccc(CNc4ncc(CN5CCC(O)CC5)cn4)cc3F)nc12 [PA227]
100 to 1000	COc1nccc2ccc(Nc3ccc(CNc4ncc(CC(=O)N5CCC(O)CC5)cn4)cc3F)nc12 [PA230]
100 to 1000	COc1nccc2ccc(Nc3ccc(CNc4ncc(CC(N)=O)cn4)cc3F)nc12 [PA231]
100 to 1000	COc1nccc2ccc(Nc3ccc(CNc4ncc(CC(=O)N5CCC(O)C5)cn4)cc3F)nc12 (stereo not shown) [PA232]
100 to 1000	COc1nccc2ccc(Nc3ccc(CNc4ncc(CNCc5cn[nH]c5)cn4)cc3F)nc12 [PA234]
100 to 1000	COc1nccc2ccc(Nc3ccc(CNc4ncc(CNCc5cocn5)cn4)cc3F)nc12 [PA239]
100 to 1000	COc1nccc2ccc(Nc3ccc([C@H](C)Nc4ncc(CNCC5CC(F)(F)C5)cn4)cc3F)nc12 [PA240]
> 1000	COc1nccc2ccc(Nc3ccc(CNc4ncc(CNCCO)cn4)cc3F)nc12 [PA242]
> 1000	COc1nccc2ccc(Nc3ccc(CNc4ncc(N5CCC(OC)C5)cn4)cc3F)nc12 (stereo not shown) [PA244]

The remaining lines, values behind:

SMILES	IC50 [nM]
Cc1ccc2ccc(NC34CCC([C@H](C)Nc5ncc(CNC6CS(=O)(=O)C6)cn5)(CC3)CC4)nc2c1Cl [PA179]	≤ 100
COc1nccc2ccc(NC34CCC(C(C)Nc5ncc(CC(=O)NC6COC6)cn5)(CC3)CC4)nc12 (stereo not shown) [PA180]	≤ 100
COc1nccc2ccc(Nc3ccc([C@H](C)Nc4ncc(CNC5CCS(=O)(=O)C5)cn4)cc3F)nc12 (stereo partly shown) [PA182]	≤ 100
Cc1ccc2ccc(NC34CCC(C(C)Nc5ncc(CC(=O)NC6COC6)cn5)(CC3)CC4)nc2c1Cl (stereo not shown) [PA183]	≤ 100
CC(c1cnc(N[C@@H](C)C23CCC(Nc4ccc5ccnc(Cl)c5n4)(CC2)CC3)nc1)N1CCS(=O)(=O)CC1 (stereo partly shown) [PA184]	≤ 100
COc1nccc2ccc(Nc3ccc([C@H](C)Nc4ncc(CC(=O)N(CCC#N)C5COC5)cn4)cc3F)nc12 [PA185]	≤ 100
COc1nccc2ccc(Nc3ccc([C@H](C)Nc4ncc([C@H](C)C(=O)NC5COC5)cn4)cc3F)nc12 [PA186]	≤ 100
C[C@H](Nc1ncc(CC2CCS(=O)(=O)CC2)cn1)C12CCC(Nc3ccc4ccnc(Cl)c4n3)(CC1)CC2 [PA187]	≤ 100
C[C@H](Nc1ncc(CNCc2cnoc2)cn1)C12CCC(Nc3ccc4ccnc(Cl)c4n3)(CC1)CC2 [PA188]	≤ 100
COc1nccc2ccc(Nc3ccc([C@H](C)Nc4ncc(CN5CCN(S(C)(=O)=O)CC5)cn4)cc3F)nc12 [PA189]	≤ 100
COc1nccc2ccc(Nc3ccc([C@H](C)Nc4ncc(C(C)C(=O)NC5COC5)cn4)cc3F)nc12 (stereo partly shown) [PA190]	≤ 100
CC(C(=O)NCCC#N)c1cnc(N[C@@H](C)C23CCC(Nc4ccc5ccnc(Cl)c5n4)(CC2)CC3)nc1 (stereo partly shown) [PA191]	≤ 100
COc1nccc2ccc(Nc3ccc([C@H](C)Nc4ncc(CC(=O)N(CCC#N)CCC#N)cn4)cc3F)nc12 [PA192]	≤ 100
COc1nccc2ccc(Nc3ccc([C@H](C)Nc4ncc(CC(=O)NC5COC5)cn4)cc3F)nc12 [PA193]	≤ 100
COc1nccc2ccc(Nc3ccc([C@H](C)Nc4ncc(CN5CCS(=O)(=O)CC5)cn4)cc3F)nc12 [PA194]	≤ 100
COc1nccc2ccc(Nc3ccc([C@H](C)Nc4ncc(CC5CCS(=O)(=O)CC5)cn4)cc3F)nc12 [PA195]	≤ 100
COc1nccc2ccc(Nc3ccc([C@H](C)Nc4ncc(CNC5CC(C#N)C5)cn4)cc3F)nc12 (stereo partly shown) [PA196]	≤ 100
COc1nccc2ccc(Nc3ccc([C@H](C)Nc4ncc(N5CC(CC#N)C5)cn4)cc3F)nc12 [PA199]	≤ 100
CC(C(=O)N(CCC#N)CCC#N)c1cnc(N[C@@H](C)C23CCC(Nc4ccc5ccnc(Cl)c5n4)(CC2)CC3)nc1 (stereo partly shown) [PA202]	≤ 100
COc1nccc2ccc(Nc3ccc(C(C)Nc4ncc(CC(=O)NC5COC5)cn4)cc3F)nc12 (stereo not shown) [PA204]	≤ 100
COc1nccc2ccc(Nc3ccc([C@H](C)Nc4ncc(C(N)C(=O)NC5COC5)cn4)cc3F)nc12 (stereo partly shown) [PA205]	≤ 100

SMILES	IC50 [nM]
COc1nccc2ccc(Nc3ccc([C@H](C)Nc4ncc(N5CC(C#N)C5)cn4)cc3F)nc12 [PA206]	≤ 100
C[C@@H](Nc1ncc(CC(=O)NC2COC2)cn1)C12CCC(Nc3ccc4ccnc(Cl)c4n3)(CC1)CC2 [PA209]	100 to 1000
COc1nccc2ccc(Nc3ccc([C@H](C)Nc4ncc(/C=C/C5CCS(=O)(=O)CC5)cn4)cc3F)nc12 [PA210]	100 to 1000
COc1nccc2ccc(Nc3ccc([C@H](C)Nc4ncc(CC(=O)NC5CS(=O)(=O)C5)cn4)cc3F)nc12 [PA212]	100 to 1000
COc1nccc2ccc(Nc3ccc([C@H](C)Nc4ncc(C=CC5CCS(=O)(=O)CC5)cn4)cc3F)nc12 [PA213]	100 to 1000
COc1nccc2ccc(Nc3ccc([C@H](C)Nc4ncc(N5CCC(C#N)CC5)cn4)cc3F)nc12 [PA214]	100 to 1000
COc1nccc2ccc(Nc3ccc([C@H](C)Nc4ncc(CC(=O)NC5CC(F)(F)C5)cn4)cc3F)nc12 [PA216]	100 to 1000
COc1nccc2ccc(Nc3ccc([C@H](C)Nc4ncc(N(C)C(=O)NC5COC5)cn4)cc3F)nc12 [PA217]	100 to 1000
COc1nccc2ccc(Nc3ccc([C@H](CO)Nc4ncc(CC(=O)NC5COC5)cn4)cc3F)nc12 [PA218]	100 to 1000
COc1nccc2ccc(Nc3ccc([C@H](C)Nc4ncc(CC(=O)NC5CCCC5OC)cn4)cc3F)nc12 (stereo partly shown) [PA222]	100 to 1000
COc1nccc2ccc(Nc3ccc([C@H](C)Nc4ncc(CCNC5CC(F)(F)C5)cn4)cc3F)nc12 [PA223]	100 to 1000
COc1nccc2ccc(Nc3ccc([C@H](C)Nc4ncc([C@@H](C)C(=O)NC5COC5)cn4)cc3F)nc12 [PA225]	100 to 1000
O=C(Cc1ccc(NCC23CCC(Nc4ccc5ccnc(Cl)c5n4)(CC2)CC3)nc1)NC1COC1 [PA228]	100 to 1000
COc1nccc2ccc(NC34CCC(CNc5ncc(CC(=O)NC6COC6)cn5)(CC3)OC4)nc12 [PA229]	100 to 1000
COc1nccc2ccc(Nc3ccc([C@H](C)Nc4ccc(CC(=O)NC5COC5)cn4)cc3F)nc12 [PA233]	100 to 1000
COc1nccc2ccc(Nc3ccc([C@H](C)Nc4ncc(CCN(C)C5CC(F)(F)C5)cn4)cc3F)nc12 [PA235]	100 to 1000
COc1nccc2ccc(Nc3ccc(C(CO)Nc4ncc(CC(=O)NC5COC5)cn4)cc3F)nc12 (stereo not shown) [PA236]	100 to 1000
COc1nccc2ccc(Nc3ccc([C@H](C)Nc4ccc(NC(=O)NC5COC5)cn4)cc3F)nc12 [PA238]	100 to 1000
COc1nccc2ccc(Nc3ccc([C@H](C)Nc4c(F)cc(CNC5CS(=O)(=O)C5)cc4F)cc3F)nc12 [PA241]	100 to 1000
O=C(Cc1cnc(NCc2ccc(Nc3ccc4c(Cl)nccc4n3)cc2)nc1)NC1COC1 [PA243]	> 1000
